Measured values taken from patent publication US6020344A (priority 1998, dated 2000).
Entries after “also recorded” stand apart in the source; their conditions may differ. Where two headings read alike, the source gives them in different places.

Columns and labels:
[1] = test system: influenza neuraminidase; conditions: literature; FANA compared with DANA; cited from earlier work
[2] = test system: Clostridium perfringens sialidase; assay type: biochemical; conditions: for binding/inhibition of 5a compared with 5b (in words): 5a vs 5b; for affinity relative to substrate (in words): Ki vs substrate Km; for Ki: Table 1, competitive inhibition fit; for competitive inhibitor potency (in words): summary statement
[3] = molecular target: T1, Salmonella typhimurium sialidase (Salmonella typhimurium, UniProt P29768); assay: biochemical
[4] = molecular target: T2, Vibrio cholerae sialidase (Vibrio cholerae serotype O1, UniProt P0C6E9); assay: biochemical
[5] = molecular target: T1, Salmonella typhimurium sialidase; conditions: for competitive inhibitor potency (in words): summary statement
[6] = molecular target: bacterial sialidases; assay type: biochemical; conditions: read-out: Ki (range)
[7] = molecular target: T2, Vibrio cholerae sialidase
[8] = carboxyl group adjacent to the anomeric carbon; cited from earlier work
[9] = test system: CC(=O)NC1C(O)CC(Oc2ccc([N+](=O)[O-])cc2)(C(=O)O)OC1C(O)C(O)CO; assay: purified protein, by the assay type; conditions: pH 5.5; 30.0 °C

T2 sequence (P0C6E9 25-781): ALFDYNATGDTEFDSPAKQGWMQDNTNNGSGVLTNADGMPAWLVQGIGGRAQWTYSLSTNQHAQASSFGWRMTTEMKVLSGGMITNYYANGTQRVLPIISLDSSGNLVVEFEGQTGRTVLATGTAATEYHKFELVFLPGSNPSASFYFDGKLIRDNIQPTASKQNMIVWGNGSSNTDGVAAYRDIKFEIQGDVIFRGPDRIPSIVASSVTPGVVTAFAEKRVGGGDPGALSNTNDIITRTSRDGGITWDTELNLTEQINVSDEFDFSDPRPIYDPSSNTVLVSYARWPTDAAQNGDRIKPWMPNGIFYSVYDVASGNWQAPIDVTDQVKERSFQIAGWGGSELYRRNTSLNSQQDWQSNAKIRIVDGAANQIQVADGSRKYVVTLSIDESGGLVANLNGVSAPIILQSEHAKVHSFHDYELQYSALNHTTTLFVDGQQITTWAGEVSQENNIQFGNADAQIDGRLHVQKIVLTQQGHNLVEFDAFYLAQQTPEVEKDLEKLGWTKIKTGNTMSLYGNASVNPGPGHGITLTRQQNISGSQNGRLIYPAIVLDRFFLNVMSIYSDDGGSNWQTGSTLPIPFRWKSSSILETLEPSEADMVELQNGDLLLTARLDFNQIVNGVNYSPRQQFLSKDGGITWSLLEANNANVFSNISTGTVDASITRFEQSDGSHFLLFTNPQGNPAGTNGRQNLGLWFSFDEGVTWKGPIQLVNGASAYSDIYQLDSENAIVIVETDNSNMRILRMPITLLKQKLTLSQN
T1 sequence (P29768 whole entry): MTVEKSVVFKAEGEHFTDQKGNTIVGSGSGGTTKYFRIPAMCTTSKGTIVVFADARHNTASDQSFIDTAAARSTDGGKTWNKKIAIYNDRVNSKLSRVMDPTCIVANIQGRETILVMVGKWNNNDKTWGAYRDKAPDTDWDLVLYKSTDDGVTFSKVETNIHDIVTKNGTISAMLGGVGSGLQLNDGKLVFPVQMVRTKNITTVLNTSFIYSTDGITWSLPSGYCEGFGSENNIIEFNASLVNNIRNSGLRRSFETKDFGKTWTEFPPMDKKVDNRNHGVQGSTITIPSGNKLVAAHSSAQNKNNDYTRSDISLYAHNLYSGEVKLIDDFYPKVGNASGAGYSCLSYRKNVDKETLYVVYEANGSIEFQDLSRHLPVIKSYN

O=C(O)C1=C[C@H](O)[C@@H](NC(=O)C(F)(F)F)[C@H]([C@H](O)[C@H](O)CO)O1 [FANA, 2-deoxy-2,3-dehydro-N-(trifluoroacetyl) neuraminic acid]
in vitro inhibition of influenza neuraminidase (in words) [1]: greater in vitro activity

CC(=O)NC1C(O)CC(Oc2ccc([N+](=O)[O-])cc2)(C(=O)O)OC1C(O)C(O)CO [2-O-(p-nitrophenyl)-a-D-N-acetylneuraminic acid, reference compound]
Km ([2]; pH 5.5, 30° C.): 280 ± 30 µM

CC(=O)N[C@H]1[C@H]([C@H](O)[C@H](O)CO)OC(C(=O)O)=C[C@@H]1O [DANA, 2-deoxy-2,3-dehydro-N-acetylneuraminic acid]
in vitro inhibition of influenza neuraminidase (in words) [1]: effective in vitro inhibitor of NA; also recorded: among the most potent thus far described

CC(=O)N[C@H]1[C@H](O)CN(C(Cc2ccccc2)C(=O)O)C[C@@H]1O (relative stereo) [±5b, trans-trans-5-N-(1'-carboxy-benzyl-ethyl)-3,5-dihydroxy-4-acetamidopiperidine]
Ki [3]: 560 ± 30 µM
Ki [4]: 1500 ± 200 µM
binding of ±5b relative to 5a ([5]; 5b vs 5a): ~5 times more tightly
binding of ±5b relative to 5a (in words) ([5]; 5b vs 5a): bound tighter than 5a
type of inhibition (double reciprocal plot) ([5]; FIG. 4): competitive
binding relative to the p-nitrophenyl glycoside substrate ([5]; Ki vs substrate Km): approximately 2 × tighter
competitive inhibitor potency (in words) [5]: sub-millimolar competitive inhibitors
Ki [6]: 100 to 1000 µM
binding / inhibition (in words) [7]: modest inhibitor
binding of ±5b relative to 5a (in words) ([7]; 5b vs 5a): bound tighter than 5a
binding relative to the p-nitrophenyl glycoside substrate ([7]; Ki vs substrate Km): approximately 2 × tighter
binding / inhibition (in words) ([7]; listed as 5b): bind weakly
binding/inhibition of 5a compared with 5b (in words) [2]: inhibited to the same extent
binding/inhibition of 5a compared with 5b (in words) ([2]; listed as 5b): no net energetic advantage over binding 5a exists; also recorded: no preference
affinity relative to substrate (in words) [2]: slightly lower affinity than substrate
Ki ([2]; pH 5.5, 30° C.): 500 ± 70 µM
competitive inhibitor potency (in words) [2]: sub-millimolar competitive inhibitors

CC(=O)N[C@H]1[C@H]([C@H](O)[C@H](O)CO)OC(O)(C(=O)O)C[C@@H]1O (stereo partly drawn) [N-acetyl neuraminic acid]
pKa [8]: ~ 2.8

CC(=O)N[C@H]1[C@H](O)CN(CC(=O)O)C[C@@H]1O [Compound 5a]
Ki [3]: 2500 ± 400 µM
Ki [4]: > 2000 µM
competitive inhibitor potency (in words) [5]: sub-millimolar competitive inhibitors
Ki [6]: 100 to 1000 µM
binding / inhibition (in words) [7]: bind weakly
inhibition at concentrations up to / below 2 mM ([7]; up to 2 mM 5a, pH 5.5, 30° C.): No inhibition; also recorded: did not show inhibition
binding/inhibition of 5a compared with 5b (in words) [2]: inhibited to the same extent; also recorded: no preference
affinity relative to substrate (in words) [2]: slightly lower affinity than substrate
Ki ([2]; pH 5.5, 30° C.): 400 ± 100 µM
competitive inhibitor potency (in words) [2]: sub-millimolar competitive inhibitors

Salmonella typhimurium sialidase (Salmonella enterica subsp. enterica serovar Typhimurium str. LT2)
Km [9]: 1200 µM

Vibrio cholerae sialidase (Vibrio cholerae O1 biovar El Tor str. N16961)
Km [9]: 2700 µM
